Reference: US7022513B2, “Cell based signal generation” (priority 1999, dated 2006)

Test system: strain CY7284
Assay: lacZ assay, Cp5766 in strain CY7284 with integrated LexAop-lacZ
Format: cell-based, yeast
Settings: after 3 hours of treatment, data not shown
Method: In addition to transformation of the chimeric construct, the construct may also be integrated into the yeast strain. […] The lacZ assay was performed as described above.

## a-factor
  increase of β-galactosidase activities: 63 fold
